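Following 48 hours of exposure in 96-well plates, responses at five concentrations were used to interpolate endpoints linearly. TGI: total growth inhibition.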
Key:
Test in all cases: growth of human tumour cells (NCI), 48 h
EKVX NSCLC = test system: EKVX NSCLC
HT29 colon = test system: HT29 colon
IGROV1 ovarian = test system: IGROV1 ovarian
MDA-MB-231 breast = test system: MDA-MB-231 breast
SF-268 CNS = test system: SF-268 CNS
HCT-116 colon = test system: HCT-116 colon
786-0 renal = test system: 786-0 renal
U251 CNS = test system: U251 CNS
RXF 393 renal = test system: RXF 393 renal
TK-10 renal = test system: TK-10 renal
CAKI-1 renal = test system: CAKI-1 renal
SK-MEL-5 melanoma = test system: SK-MEL-5 melanoma
ACHN renal = test system: ACHN renal
NCI/ADR-RES ovarian = test system: NCI/ADR-RES ovarian
KM12 colon = test system: KM12 colon
T-47D breast = test system: T-47D breast
SNB-19 CNS = test system: SNB-19 CNS
HOP-92 NSCLC = test system: HOP-92 NSCLC
NCI-H226 lung = test system: NCI-H226 lung
HOP-62 NSCLC = test system: HOP-62 NSCLC
LOX IMVI melanoma = test system: LOX IMVI melanoma
NCI-H23 lung = test system: NCI-H23 lung
HCC-2998 colon = test system: HCC-2998 colon
OVCAR-8 ovarian = test system: OVCAR-8 ovarian
K-562 leukemia = test system: K-562 leukemia
HS 578T breast = test system: HS 578T breast
COLO 205 colon = test system: COLO 205 colon
SNB-75 CNS = test system: SNB-75 CNS
MDA-N = test system: MDA-N
NCI-H522 lung = test system: NCI-H522 lung
MCF7 breast = test system: MCF7 breast
PC-3 prostate = test system: PC-3 prostate
M14 melanoma = test system: M14 melanoma
OVCAR-3 ovarian = test system: OVCAR-3 ovarian
A549 NSCLC = test system: A549 NSCLC
SK-OV-3 ovarian = test system: SK-OV-3 ovarian
HL-60(TB) leukemia = test system: HL-60(TB) leukemia
SF-295 CNS = test system: SF-295 CNS
MALME-3M melanoma = test system: MALME-3M melanoma
MDA-MB-435 = test system: MDA-MB-435
MOLT-4 leukemia = test system: MOLT-4 leukemia
BT-549 breast = test system: BT-549 breast
OVCAR-5 ovarian = test system: OVCAR-5 ovarian
UO-31 renal = test system: UO-31 renal
SW-620 colon = test system: SW-620 colon
DU-145 prostate = test system: DU-145 prostate
SF-539 CNS = test system: SF-539 CNS
SN12C renal = test system: SN12C renal
RPMI-8226 leukemia = test system: RPMI-8226 leukemia
OVCAR-4 ovarian = test system: OVCAR-4 ovarian
SR leukemia = test system: SR leukemia
SK-MEL-28 melanoma = test system: SK-MEL-28 melanoma
NCI-H460 lung = test system: NCI-H460 lung
HCT-15 colon = test system: HCT-15 colon

In the case of `CC(=O)OCC1OC(n2c(-c3ccc(Cl)cc3)cc(-c3ccccc3)c(C#N)c2=S)C(OC(C)=O)C(OC(C)=O)C1OC(C)=O` (centres undefined), the TGI (EKVX NSCLC) was 31.9 µM, the TGI (HT29 colon) was 21.1 µM and the TGI (IGROV1 ovarian) was 25.8 µM. For the same compound, the TGI (MDA-MB-231 breast) was 15.7 µM, the TGI (SF-268 CNS) was 25.6 µM and the TGI (HCT-116 colon) was 18.8 µM. It also gave a TGI (786-0 renal) of 24.6 µM, a TGI (U251 CNS) of 20.6 µM and a TGI (RXF 393 renal) of 26 µM. The TGI (TK-10 renal) was 42.2 µM, the TGI (CAKI-1 renal) was 26.9 µM and the TGI (SK-MEL-5 melanoma) was 23.5 µM. The TGI (ACHN renal) was 26.2 µM, the TGI (NCI/ADR-RES ovarian) was 21 µM and the TGI (KM12 colon) was 48.7 µM. The TGI (T-47D breast) was 39.5 µM, the TGI (SNB-19 CNS) was 20.9 µM and the TGI (HOP-92 NSCLC) was 40.8 µM. For the same compound, the TGI (NCI-H226 lung) was 12 µM, the TGI (HOP-62 NSCLC) was 20.5 µM and the TGI (LOX IMVI melanoma) was 17.8 µM. The TGI (NCI-H23 lung) was 27.2 µM, the TGI (HCC-2998 colon) was 34.7 µM and the TGI (OVCAR-8 ovarian) was 23 µM. The TGI (K-562 leukemia) was > 100 µM, the TGI (HS 578T breast) was 10.5 µM and the TGI (COLO 205 colon) was 33 µM. It also gave a TGI (SNB-75 CNS) of 20.8 µM, a TGI (MDA-N) of 24.3 µM and a TGI (NCI-H522 lung) of 60.1 µM. For the same compound, the TGI (MCF7 breast) was 67.8 µM, the TGI (PC-3 prostate) was 23.3 µM and the TGI (M14 melanoma) was 16.4 µM. For the same compound, the TGI (OVCAR-3 ovarian) was 22.4 µM, the TGI (A549 NSCLC) was 27.9 µM and the TGI (SK-OV-3 ovarian) was 25.2 µM. It also gave a TGI (HL-60(TB) leukemia) of 17.4 µM, a TGI (SF-295 CNS) of 23.6 µM and a TGI (MALME-3M melanoma) of 7.71 µM. It also gave a TGI (MDA-MB-435) of 25.2 µM, a TGI (MOLT-4 leukemia) of 85.9 µM and a TGI (BT-549 breast) of 17.8 µM. For the same compound, the TGI (OVCAR-5 ovarian) was 35 µM, the TGI (UO-31 renal) was 40.1 µM and the TGI (SW-620 colon) was 14.7 µM. For the same compound, the TGI (DU-145 prostate) was 35.6 µM, the TGI (SF-539 CNS) was 14.6 µM and the TGI (SN12C renal) was 26.3 µM. It also gave a TGI (RPMI-8226 leukemia) of 43.3 µM, a TGI (OVCAR-4 ovarian) of 3.3 µM and a TGI (SR leukemia) of 53 µM. The TGI (SK-MEL-28 melanoma) was 23.4 µM, the TGI (NCI-H460 lung) was 17.9 µM and the TGI (HCT-15 colon) was > 100 µM.

From PubChem BioAssay (NCI)
